Patent publication US5192766A, “N-acryloylpiperazine derivatives, their preparation and their use as PAF antagonists” (Sankyo Company, Limited, priority 1989, dated 1993)

What was measured:
PAF-induced hypotension = assay: Inhibition of PAF-induced hypotension; type: in vivo, Wistar-Imamichi rats; conditions: Rattus norvegicus, iv, 1 min; anesthetized rats; l-C16:0 PAF 10 ng/kg i.v.; test compound i.v. cumulatively, 1 min before PAF; read-out: Inhibitory effect ID50
Description: Inhibition of PAF-induced hypotension
The test animals used were Wistar-Imamichi rats, each weighing from 350 to 450 g, anesthetized with Inactin (90 mg/kd, intraperitoneally).
Blood pressure was continuously measured throughout the experiment through a cannula inserted into the femoral artery. Each drug sample to be tested was intravenously injected through a cannula inserted into the femoral vein.
At first, l-C16:0 PAF was injected intravenously in amounts of 10 ng/kg at each injection at intervals of 5 minutes until the degree of the hypotensive response became constant. Then, each drug sample to be treated was intravenously injected. After one minute, the same dose of PAF was administered again. The drug sample was cumulatively administered. From its inhibition rate against the PAF-induced hypotensive effect, the 50% inhibitive dose (ID50) was determined, and is regarded as an index of PAF-antagonist activity. For administration, the PAF was dissolved in physiological saline solution containing 0.25% w/v of bovine serum albumin (BSA). The compounds under test were dissolved in dimethylformamide for use.
CV-3988 is disclosed in U.S. Pat. No. 4,408,052, and is structurally related to PAF itself.
In this Table, the compounds of the invention are identified by the number of the foregoing Example in which they were prepared.

[1] = system: blood platelet (PAF-induced aggregation); assay: Inhibitory effect in vitro against PAF-induced blood platelet aggregation; type: cell-based; conditions: Oryctolagus cuniculus, 5 min; rabbit platelet rich plasma; l-C16:0 PAF final 10^-8 ~3×10^-8 M; 5 min observation
Description: Inhibitory effect in vitro against PAF-induced blood platelet aggregation
Blood samples were drawn from a rabbit and one part by volume of each sample was immediately mixed with 1/9 part of a 3.8% w/v aqueous solution of sodium citrate. The samples were centrifuged at 150×G at room temperature for 15 minutes to obtain a platelet rich plasma (PRP) fraction from the upper layer. The remains were further centrifuged at 1,000×G for 15 minutes to obtain a platelet poor plasma (PPP) fraction from the upper layer. The PRP and PPP fractions were mixed appropriately, to obtain a sample in which the final count of blood platelets was adjusted to be 6×10^5 per ul. According to the method reported by Born et al. [G. V. R. Born et al.: J. Physiol. 62, 67-68 (1962)], blood platelet aggregation was determined by an increase in light transmission measured using an aggregometer. 3 ul of a solution of the test compound in dimethyl sulfoxide were added to 272 ul of PRP, and, after 1 minute, 25 ul of a physiological saline solution containing l-c16:0 PAF (at a final concentration of 10^-8 ~3×10^-8 M) were added. […] At the end of this value and the value of PAF-induced aggregation which was observed when dimethyl sulfoxide only was used without the addition of any test compound. IC50 values were calculated from the dose-response curve.

PAF-receptor = target: T1, PAF-receptor (Oryctolagus cuniculus, UniProt G1TEI7); assay: Inhibitor effect on PAF-receptor binding; conditions: specific binding of ^3H-PAF; rabbit platelet PAF-receptor membrane fraction; read-out: Inhibition of receptor binding (IC50 M)
T1 construct: is regarded as a PAF-receptor membrane fraction; from tissue; host or cells: rabbit blood platelets (membrane fraction from sucrose density layers)
Description: Inhibitor effect on PAF-receptor binding
Blood samples were drawn from the heart of a rabbit. 1 part by volume of each sample was mixed immediately with 1/9 part of 0.77M solution of disodium ethylenediaminetetraacetate. After a similar procedure to that described in Experiment 2, a precipitated blood platelet sample was obtained. This blood platelet sample was washed, and, after repeated freezing and thawing for cellular breakdown, it was laid on top of double layers consisting of […] and 1.5M sucrose solutions. By centrifugation at 63,500×G, for 2 hours at 4° C., the fraction obtained from the interface between the 0.25M and 1.5M sucrose solutions was collected and is regarded as a PAF-receptor membrane fraction. A receptor binding experiment was conducted according to a method very similar to that reported by Hwang et al. [San-Bao Hwang et al.: J. Biol. Chem. 260, 15639-15645 (1985)]. The specific binding of ^3 H-PAF was measured using a Wattman GF/C filter. A test compound was dissolved in dimethyl sulfoxide and diluted 100 fold with a buffer solution containing 0.5% bovine serum albumin. Nine parts by weight of the solution, for a receptor binding experiment, was mixed with one part of the test compound solution prepared above. The percent inhibition of the specific binding was plotted for a log concentration of the test compound, and the 50% inhibitory concentration (IC50) was calculated from the linear line connecting all the plotted points.

Acute toxicity = type: in vivo; conditions: oral, 300 mg/kg, 3 male ddy mice (5 weeks old), observed one week
Description: Each of the compounds prepared as described in Examples 2, 7 and 15 was separately administered orally in a dose of 300 mg/kg to each of a group of 3 male ddy mice (5 weeks old).

T1 sequence (G1TEI7 1-342): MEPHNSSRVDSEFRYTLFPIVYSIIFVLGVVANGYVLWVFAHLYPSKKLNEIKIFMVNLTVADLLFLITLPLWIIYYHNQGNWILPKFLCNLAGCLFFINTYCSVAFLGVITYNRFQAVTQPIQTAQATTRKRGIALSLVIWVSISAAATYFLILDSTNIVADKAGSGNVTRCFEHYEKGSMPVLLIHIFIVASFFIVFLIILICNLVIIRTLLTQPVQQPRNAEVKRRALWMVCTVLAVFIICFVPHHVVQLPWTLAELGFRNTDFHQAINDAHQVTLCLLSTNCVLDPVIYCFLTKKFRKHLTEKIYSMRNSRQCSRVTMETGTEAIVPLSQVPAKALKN

| SMILES | ED50 (PAF-induced hypotension) | IC50 [1] | IC50 (PAF-receptor) | Acute toxicity (survival) (Acute toxicity) |
| --- | --- | --- | --- | --- |
| COc1ccc(/C(=C/C(=O)N2CCN(C(=O)c3cc(OC)c(OC)c(OC)c3)CC2)c2ccc(Cl)cc2)cc1OC [Example 15, 1-[(E)-3-(4-Chlorophenyl)-3-(3,4-dimethoxyphenyl)acryloyl]-4-(3,4,5-trimethoxybenzoyl)piperazine] | 0.022 mg/kg | 68 nM | 43 nM | all mice survived |
| COc1ccc(C(=CC(=O)N2CCN(C(=O)c3cc(OC)c(OC)c(OC)c3)CC2)c2ccc(OC)cc2)cc1 [Example 2, 1-[3,3-Bis(4-methoxyphenyl)acryloyl]-4-(3,4,5-trimethoxybenzoyl)piperazine] | 0.039 mg/kg | 200 nM | – | all mice survived |
| COc1ccc(/C(=C/C(=O)N2CCN(C(=O)c3cc(OC)c(OC)c(OC)c3)CC2)c2ccccc2)cc1OC [Example 7, 1-[(E)-3-(3,4-Dimethoxyphenyl)cinnamoyl]-4-(3,4,5-trimethoxybenzoyl)piperazine] | 0.014 mg/kg | – | – | all mice survived |
| COc1ccc(/C(=C/C(=O)N2CCN(C(=O)c3cc(OC)c(OC)c(OC)c3)CC2)c2cccc(Cl)c2)cc1 [Example 45, 1-[(Z)-3-(3-Chlorophenyl)-3-(4-methoxyphenyl)acryloyl]-4-(3,4,5-trimethoxybenzoyl)piperazine] | 0.0066 mg/kg | 39 nM | 16 nM | – |
